Laboratory results as given in ChEMBL document CHEMBL4507315 (2021).

Key:
[1] = molecular target: Membrane-associated tyrosine- and threonine-specific cdc2-inhibitory kinase (Homo sapiens) (UniProt Q99640); settings: Compound concentration 100.0 nM
[2] = tested on: Proto-oncogene tyrosine-protein kinase receptor Ret (Homo sapiens), P07949 [V804L]; settings: Compound concentration 100.0 nM
[3] = molecular target: Insulin receptor (Homo sapiens) (UniProt P06213); settings: Compound concentration 100.0 nM
[4] = molecular target: Calcium/calmodulin-dependent protein kinase kinase 2 (Homo sapiens) (UniProt Q96RR4); settings: Compound concentration 100.0 nM
Sequence of Calcium/calmodulin-dependent protein kinase kinase 2 (Homo sapiens) (Q96RR4 2-588 limits assumed): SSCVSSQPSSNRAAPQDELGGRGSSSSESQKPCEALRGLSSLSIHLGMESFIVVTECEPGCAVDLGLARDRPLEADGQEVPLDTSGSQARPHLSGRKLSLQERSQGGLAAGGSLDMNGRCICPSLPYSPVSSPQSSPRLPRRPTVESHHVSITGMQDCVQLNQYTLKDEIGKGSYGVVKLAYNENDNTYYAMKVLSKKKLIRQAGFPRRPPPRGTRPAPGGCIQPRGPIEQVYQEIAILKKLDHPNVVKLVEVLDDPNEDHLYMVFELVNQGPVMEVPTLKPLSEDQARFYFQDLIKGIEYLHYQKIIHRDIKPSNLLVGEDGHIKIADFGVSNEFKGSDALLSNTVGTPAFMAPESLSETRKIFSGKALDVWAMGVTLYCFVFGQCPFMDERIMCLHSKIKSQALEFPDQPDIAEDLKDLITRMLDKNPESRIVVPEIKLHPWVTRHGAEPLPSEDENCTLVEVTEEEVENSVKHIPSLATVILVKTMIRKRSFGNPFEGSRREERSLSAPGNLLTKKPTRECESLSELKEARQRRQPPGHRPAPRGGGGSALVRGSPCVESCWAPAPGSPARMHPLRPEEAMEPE

[5] = molecular target: Serine/threonine-protein kinase 38-like (Homo sapiens) (UniProt Q9Y2H1); settings: Compound concentration 100.0 nM
[6] = molecular target: Serine/threonine-protein kinase 10 (Homo sapiens) (UniProt O94804); settings: Compound concentration 100.0 nM
[7] = molecular target: 5'-AMP-activated protein kinase catalytic subunit alpha-1 (Homo sapiens) (UniProt Q13131); settings: Compound concentration 100.0 nM
[8] = molecular target: Tyrosine-protein kinase ABL1 (Homo sapiens) (UniProt P00519); settings: Compound concentration 100.0 nM
[9] = tested on: ALK tyrosine kinase receptor (Homo sapiens), Q9UM73 [L1196M]; settings: Compound concentration 100.0 nM
[10] = molecular target: Tyrosine-protein kinase Blk (Homo sapiens) (UniProt P51451); settings: Compound concentration 100.0 nM
[11] = molecular target: Receptor tyrosine-protein kinase erbB-3 (Homo sapiens) (UniProt P21860); settings: Compound concentration 100.0 nM
[12] = molecular target: Serine/threonine-protein kinase 32A (Homo sapiens) (UniProt Q8WU08); settings: Compound concentration 100.0 nM
[13] = molecular target: Fibroblast growth factor receptor 2 (Homo sapiens) (UniProt P21802); settings: Compound concentration 100.0 nM
[14] = molecular target: Calcium/calmodulin-dependent protein kinase type II subunit delta (Homo sapiens) (UniProt Q13557); settings: Compound concentration 100.0 nM
[15] = molecular target: Protein kinase C iota type (Homo sapiens) (UniProt P41743); settings: Compound concentration 100.0 nM
[16] = molecular target: Tyrosine-protein kinase Lyn (Homo sapiens) (UniProt P07948); settings: Compound concentration 100.0 nM
[17] = molecular target: Serine/threonine-protein kinase PAK 4 (Homo sapiens) (UniProt O96013); settings: Compound concentration 100.0 nM
[18] = molecular target: Mitogen-activated protein kinase kinase kinase 6 (Homo sapiens) (UniProt O95382); settings: Compound concentration 100.0 nM
[19] = molecular target: Mitogen-activated protein kinase 15 (Homo sapiens) (UniProt Q8TD08); settings: Compound concentration 100.0 nM
[20] = molecular target: Dual specificity mitogen-activated protein kinase kinase 4 (Homo sapiens) (UniProt P45985); settings: Compound concentration 100.0 nM
[21] = molecular target: Serine/threonine-protein kinase MRCK beta (Homo sapiens) (UniProt Q9Y5S2); settings: Compound concentration 100.0 nM
Sequence of Serine/threonine-protein kinase MRCK beta (Homo sapiens) (Q9Y5S2 whole entry): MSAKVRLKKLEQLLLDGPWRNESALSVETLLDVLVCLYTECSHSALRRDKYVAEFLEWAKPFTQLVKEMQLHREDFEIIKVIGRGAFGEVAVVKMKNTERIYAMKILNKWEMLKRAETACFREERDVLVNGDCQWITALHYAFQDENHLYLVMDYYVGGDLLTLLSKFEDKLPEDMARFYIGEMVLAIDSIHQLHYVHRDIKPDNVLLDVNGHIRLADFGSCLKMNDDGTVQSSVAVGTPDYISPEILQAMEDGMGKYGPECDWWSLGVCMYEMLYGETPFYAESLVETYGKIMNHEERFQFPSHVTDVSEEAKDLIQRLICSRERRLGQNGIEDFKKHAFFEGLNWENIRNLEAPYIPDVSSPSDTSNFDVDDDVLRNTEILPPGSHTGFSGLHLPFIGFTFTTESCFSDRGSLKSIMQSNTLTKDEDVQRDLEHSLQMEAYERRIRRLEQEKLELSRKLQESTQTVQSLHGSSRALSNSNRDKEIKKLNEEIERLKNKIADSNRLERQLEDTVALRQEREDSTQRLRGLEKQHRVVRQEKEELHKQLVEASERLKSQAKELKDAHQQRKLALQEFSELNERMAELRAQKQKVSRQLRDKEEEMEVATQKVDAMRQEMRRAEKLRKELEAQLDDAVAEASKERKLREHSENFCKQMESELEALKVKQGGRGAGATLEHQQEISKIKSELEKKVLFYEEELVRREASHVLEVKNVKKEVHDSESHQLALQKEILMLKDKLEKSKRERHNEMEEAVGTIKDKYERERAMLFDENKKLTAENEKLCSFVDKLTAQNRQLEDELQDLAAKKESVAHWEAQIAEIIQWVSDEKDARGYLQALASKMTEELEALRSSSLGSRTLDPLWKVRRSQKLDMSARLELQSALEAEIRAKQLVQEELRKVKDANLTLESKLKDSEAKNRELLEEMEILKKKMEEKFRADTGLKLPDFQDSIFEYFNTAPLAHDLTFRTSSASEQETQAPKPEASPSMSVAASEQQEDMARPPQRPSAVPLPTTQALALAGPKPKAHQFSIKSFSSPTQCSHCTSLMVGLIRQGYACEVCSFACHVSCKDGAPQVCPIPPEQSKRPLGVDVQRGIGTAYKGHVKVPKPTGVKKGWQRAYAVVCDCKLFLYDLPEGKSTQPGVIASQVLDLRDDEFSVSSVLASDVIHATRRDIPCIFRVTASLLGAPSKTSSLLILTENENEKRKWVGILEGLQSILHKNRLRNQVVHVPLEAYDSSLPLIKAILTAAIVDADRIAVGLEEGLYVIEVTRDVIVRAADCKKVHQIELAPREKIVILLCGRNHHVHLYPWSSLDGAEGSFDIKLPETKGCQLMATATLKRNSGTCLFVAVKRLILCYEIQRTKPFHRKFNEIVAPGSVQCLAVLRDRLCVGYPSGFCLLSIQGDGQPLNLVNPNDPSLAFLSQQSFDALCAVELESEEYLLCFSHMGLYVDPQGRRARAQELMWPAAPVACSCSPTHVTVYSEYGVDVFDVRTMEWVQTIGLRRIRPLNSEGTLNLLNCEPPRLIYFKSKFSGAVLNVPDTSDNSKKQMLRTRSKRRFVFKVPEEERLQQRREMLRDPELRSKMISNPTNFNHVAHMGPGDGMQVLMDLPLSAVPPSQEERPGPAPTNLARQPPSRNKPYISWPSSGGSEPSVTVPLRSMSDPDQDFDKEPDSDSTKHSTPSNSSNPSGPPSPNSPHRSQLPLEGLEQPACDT

[22] = molecular target: Ephrin type-A receptor 4 (Homo sapiens) (UniProt P54764); settings: Compound concentration 100.0 nM
[23] = molecular target: Ephrin type-A receptor 3 (Homo sapiens) (UniProt P29320); settings: Compound concentration 100.0 nM
[24] = molecular target: SRSF protein kinase 2 (Homo sapiens) (UniProt P78362); settings: Compound concentration 100.0 nM
[25] = molecular target: Cytoplasmic tyrosine-protein kinase BMX (Homo sapiens) (UniProt P51813); settings: Compound concentration 100.0 nM
[26] = molecular target: Tyrosine-protein kinase Fyn (Homo sapiens) (UniProt P06241); settings: Compound concentration 100.0 nM
[27] = molecular target: Serine/threonine-protein kinase MRCK gamma (Homo sapiens) (UniProt Q6DT37); settings: Compound concentration 100.0 nM
[28] = molecular target: Serine/threonine-protein kinase 17A (Homo sapiens) (UniProt Q9UEE5); settings: Compound concentration 100.0 nM
[29] = molecular target: Mitogen-activated protein kinase 11 (Homo sapiens) (UniProt Q15759); settings: Compound concentration 100.0 nM
[30] = molecular target: Dual specificity tyrosine-phosphorylation-regulated kinase 1B (Homo sapiens) (UniProt Q9Y463); settings: Compound concentration 100.0 nM
[31] = molecular target: Serine/threonine-protein kinase 32B (Homo sapiens) (UniProt Q9NY57); settings: Compound concentration 100.0 nM
[32] = molecular target: Cyclin-dependent kinase 19 (Homo sapiens) (UniProt Q9BWU1); settings: Compound concentration 100.0 nM
Sequence of Cyclin-dependent kinase 19 (Homo sapiens) (Q9BWU1 whole entry, canonical isoform): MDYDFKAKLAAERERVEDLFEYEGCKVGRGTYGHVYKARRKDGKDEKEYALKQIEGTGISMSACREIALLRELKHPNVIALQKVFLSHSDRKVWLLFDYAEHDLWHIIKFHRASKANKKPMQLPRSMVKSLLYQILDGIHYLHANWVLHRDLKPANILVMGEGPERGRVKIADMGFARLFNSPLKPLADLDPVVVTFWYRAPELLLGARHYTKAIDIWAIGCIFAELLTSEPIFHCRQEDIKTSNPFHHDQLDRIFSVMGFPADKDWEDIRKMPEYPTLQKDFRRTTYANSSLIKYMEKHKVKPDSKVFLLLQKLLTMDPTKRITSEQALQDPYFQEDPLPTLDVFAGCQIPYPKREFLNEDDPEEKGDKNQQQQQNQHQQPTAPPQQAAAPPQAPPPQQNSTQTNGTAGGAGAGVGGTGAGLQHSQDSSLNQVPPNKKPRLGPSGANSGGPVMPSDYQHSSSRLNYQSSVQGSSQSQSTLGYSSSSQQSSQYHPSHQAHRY

[33] = molecular target: Phosphorylase b kinase regulatory subunit alpha, liver isoform (Homo sapiens) (UniProt P46019); settings: Compound concentration 100.0 nM
[34] = molecular target: Sigma non-opioid intracellular receptor 1 (Homo sapiens) (UniProt Q99720); settings: Compound concentration 10.0 uM
[35] = molecular target: Interleukin-1 receptor-associated kinase 4 (Homo sapiens) (UniProt Q9NWZ3); settings: Compound concentration 100.0 nM
[36] = molecular target: Rho-associated protein kinase 1 (Homo sapiens) (UniProt Q13464); settings: Compound concentration 100.0 nM
[37] = molecular target: Ribosomal protein S6 kinase alpha-3 (Homo sapiens) (UniProt P51812); settings: Compound concentration 100.0 nM
[38] = molecular target: 5-hydroxytryptamine receptor 3A (Homo sapiens) (UniProt P46098); settings: Compound concentration 10.0 uM
[39] = molecular target: Tyrosine-protein kinase JAK1 (Homo sapiens) (UniProt P23458); settings: Compound concentration 100.0 nM
Sequence of Tyrosine-protein kinase JAK1 (Homo sapiens) (P23458 whole entry): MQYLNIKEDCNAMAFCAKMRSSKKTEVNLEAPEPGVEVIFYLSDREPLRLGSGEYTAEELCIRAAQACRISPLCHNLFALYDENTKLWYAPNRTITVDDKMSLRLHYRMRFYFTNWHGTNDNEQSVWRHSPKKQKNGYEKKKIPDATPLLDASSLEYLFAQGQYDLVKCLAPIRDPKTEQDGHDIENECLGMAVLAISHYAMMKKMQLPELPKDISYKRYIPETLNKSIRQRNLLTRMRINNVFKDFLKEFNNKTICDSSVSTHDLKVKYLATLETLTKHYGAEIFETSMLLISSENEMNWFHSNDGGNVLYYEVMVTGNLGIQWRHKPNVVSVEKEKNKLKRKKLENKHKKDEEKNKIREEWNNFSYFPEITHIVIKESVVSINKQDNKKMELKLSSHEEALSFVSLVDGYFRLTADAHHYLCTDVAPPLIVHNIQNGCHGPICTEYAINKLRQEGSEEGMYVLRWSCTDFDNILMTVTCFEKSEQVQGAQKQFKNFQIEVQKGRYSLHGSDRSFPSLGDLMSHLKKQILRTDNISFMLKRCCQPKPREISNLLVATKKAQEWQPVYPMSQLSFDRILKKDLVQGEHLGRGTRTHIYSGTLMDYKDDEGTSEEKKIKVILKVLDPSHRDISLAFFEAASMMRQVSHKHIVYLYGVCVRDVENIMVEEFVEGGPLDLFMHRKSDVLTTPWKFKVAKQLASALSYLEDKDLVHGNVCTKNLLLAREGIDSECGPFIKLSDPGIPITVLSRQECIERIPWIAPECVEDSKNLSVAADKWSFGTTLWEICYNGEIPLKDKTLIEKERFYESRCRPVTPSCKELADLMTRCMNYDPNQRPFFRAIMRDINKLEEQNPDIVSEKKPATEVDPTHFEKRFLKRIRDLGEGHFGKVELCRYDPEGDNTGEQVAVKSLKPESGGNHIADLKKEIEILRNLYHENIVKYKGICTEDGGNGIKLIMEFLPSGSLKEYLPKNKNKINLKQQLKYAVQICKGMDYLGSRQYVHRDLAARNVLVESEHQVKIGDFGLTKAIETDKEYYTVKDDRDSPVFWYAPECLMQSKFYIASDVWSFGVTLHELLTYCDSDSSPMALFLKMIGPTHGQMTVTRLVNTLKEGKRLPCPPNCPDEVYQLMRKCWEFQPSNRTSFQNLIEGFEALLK

[40] = tested on: Hepatocyte growth factor receptor (Homo sapiens), P08581 [M1250T]; settings: Compound concentration 100.0 nM
[41] = molecular target: Ribosomal protein S6 kinase alpha-5 (Homo sapiens) (UniProt O75582); settings: Compound concentration 100.0 nM
[42] = molecular target: RAC-gamma serine/threonine-protein kinase (Homo sapiens) (UniProt Q9Y243); settings: Compound concentration 100.0 nM
[43] = molecular target: Ephrin type-B receptor 1 (Homo sapiens) (UniProt P54762); settings: Compound concentration 100.0 nM
[44] = molecular target: Tyrosine-protein kinase HCK (Homo sapiens) (UniProt P08631); settings: Compound concentration 100.0 nM
[45] = molecular target: Tyrosine-protein kinase Tec (Homo sapiens) (UniProt P42680); settings: Compound concentration 100.0 nM

Sequence of Proto-oncogene tyrosine-protein kinase receptor Ret (Homo sapiens), P07949 [V804L] (P07949 whole entry V804L): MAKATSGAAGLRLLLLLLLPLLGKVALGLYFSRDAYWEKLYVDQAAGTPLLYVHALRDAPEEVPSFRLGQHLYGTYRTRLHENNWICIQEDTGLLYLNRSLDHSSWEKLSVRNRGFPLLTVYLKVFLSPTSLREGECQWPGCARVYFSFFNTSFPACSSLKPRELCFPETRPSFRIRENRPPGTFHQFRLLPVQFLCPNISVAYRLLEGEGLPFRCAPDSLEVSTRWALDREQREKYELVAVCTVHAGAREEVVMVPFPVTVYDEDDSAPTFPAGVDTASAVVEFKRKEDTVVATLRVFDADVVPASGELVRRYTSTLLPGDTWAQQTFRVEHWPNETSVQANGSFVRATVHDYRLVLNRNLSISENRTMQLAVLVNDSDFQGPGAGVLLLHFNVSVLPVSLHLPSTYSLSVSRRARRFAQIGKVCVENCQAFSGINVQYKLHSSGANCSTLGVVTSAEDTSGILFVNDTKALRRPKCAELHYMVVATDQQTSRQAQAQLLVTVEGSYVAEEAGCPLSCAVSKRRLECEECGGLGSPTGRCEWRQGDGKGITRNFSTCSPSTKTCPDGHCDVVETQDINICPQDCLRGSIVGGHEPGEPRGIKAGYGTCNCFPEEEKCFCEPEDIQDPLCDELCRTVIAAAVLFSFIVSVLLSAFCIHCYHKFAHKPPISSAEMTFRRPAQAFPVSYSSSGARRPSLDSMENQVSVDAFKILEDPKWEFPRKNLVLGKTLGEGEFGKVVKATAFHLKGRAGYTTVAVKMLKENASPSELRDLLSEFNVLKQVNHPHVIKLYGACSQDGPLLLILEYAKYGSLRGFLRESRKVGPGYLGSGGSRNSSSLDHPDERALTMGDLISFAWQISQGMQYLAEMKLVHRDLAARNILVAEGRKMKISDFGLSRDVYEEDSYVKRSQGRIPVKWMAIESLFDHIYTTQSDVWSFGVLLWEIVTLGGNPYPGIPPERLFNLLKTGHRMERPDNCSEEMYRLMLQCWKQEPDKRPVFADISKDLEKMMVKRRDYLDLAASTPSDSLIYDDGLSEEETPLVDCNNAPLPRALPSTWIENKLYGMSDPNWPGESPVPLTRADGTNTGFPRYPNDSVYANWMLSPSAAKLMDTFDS

## Nc1c(C(=O)NCc2ccc(C(=O)NCCCC3CCCCC3)cc2)cnn1-c1ccccc1 [SR-318]
[1]
  residual activity: 100%
[2]
  residual activity: 100%
[3]
  residual activity: 100%
[4]
  residual activity: 100%
[5]
  residual activity: 44%
[6]
  residual activity: 100%
[7]
  residual activity: 100%
[8]
  residual activity: 81%
[9]
  residual activity: 100%
[10]
  residual activity: 81%
[11]
  residual activity: 44%
[12]
  residual activity: 96%
[13]
  residual activity: 100%
[14]
  residual activity: 100%
[15]
  residual activity: 97%
[16]
  residual activity: 100%
[17]
  residual activity: 99%
[18]
  residual activity: 100%
[19]
  residual activity: 100%
[20]
  residual activity: 100%
[21]
  residual activity: 100%
[22]
  residual activity: 100%
[23]
  residual activity: 100%
[24]
  residual activity: 100%
[25]
  residual activity: 100%
[26]
  residual activity: 100%
[27]
  residual activity: 100%
[28]
  residual activity: 100%
[29]
  residual activity: 3.4%
[30]
  residual activity: 100%
[31]
  residual activity: 100%
[32]
  residual activity: 99%
[33]
  residual activity: 100%
[34]
  inhibition: 45.1%
[35]
  residual activity: 100%
[36]
  residual activity: 100%
[37]
  residual activity: 92%
[38]
  inhibition: -0.42%
[39]
  residual activity: 100%
[40]
  residual activity: 100%
[41]
  residual activity: 23%
[42]
  residual activity: 78%
[43]
  residual activity: 100%
[44]
  residual activity: 100%
[45]
  residual activity: 100%

## O=C(NCCCC1CCCCC1)c1ccc(CNC(=O)c2cnn(-c3ccccc3)c2C(F)(F)F)cc1 [SR-321]
[1]
  residual activity: 77%
[2]
  residual activity: 100%
[3]
  residual activity: 100%
[4]
  residual activity: 100%
[5]
  residual activity: 20%
[6]
  residual activity: 100%
[7]
  residual activity: 100%
[8]
  residual activity: 93%
[9]
  residual activity: 100%
[10]
  residual activity: 100%
[11]
  residual activity: 100%
[12]
  residual activity: 76%
[13]
  residual activity: 100%
[14]
  residual activity: 100%
[15]
  residual activity: 100%
[16]
  residual activity: 100%
[17]
  residual activity: 100%
[18]
  residual activity: 100%
[19]
  residual activity: 100%
[20]
  residual activity: 100%
[21]
  residual activity: 100%
[22]
  residual activity: 70%
[23]
  residual activity: 91%
[24]
  residual activity: 100%
[25]
  residual activity: 75%
[26]
  residual activity: 86%
[27]
  residual activity: 99%
[28]
  residual activity: 100%
[29]
  residual activity: 100%
[30]
  residual activity: 100%
[31]
  residual activity: 100%
[32]
  residual activity: 96%
[33]
  residual activity: 100%
[34]
  inhibition: 20.1%
[35]
  residual activity: 100%
[36]
  residual activity: 100%
[37]
  residual activity: 100%
[38]
  inhibition: 5.72%
[39]
  residual activity: 100%
[40]
  residual activity: 76%
[41]
  residual activity: 82%
[42]
  residual activity: 97%
[43]
  residual activity: 89%
[44]
  residual activity: 100%
[45]
  residual activity: 94%
